US10508085B2, “Compounds and methods for IDO and TDO modulation, and indications therefor” (Plexxikon Inc., priority 2016, dated 2019)

Experiments:
[1] = biological target: T1, Human Tryptophan 2,3-dioxygenase (TDO) (Homo sapiens, UniProt P48775); assay: Human TDO enzymatic assay (kynurenine level); type: biochemical; settings: 1 nM TDO, 350 μM L-Trp; geometric mean; read-out: TDO GMean: IC50 (μM) (Biochemical Assay)
T1 construct: His tag (N); made in house; host or cells: E. coli
Experimental: (§1) Human Indoleamine 2,3-dioxygenase (IDO) and Tryptophan 2,3-dioxygenase (TDO) enzymatic assay
(§2) Human IDO or TDO with N-terminal His tag is purified in E. coli. The IDO enzymatic assay is performed using 6 nM IDO and 10 μM L-Trp in the presence of 10 mM ascorbic acid, 5 μM methylene blue, 100 nM catalase and 0.01% Tween 20 in 50 mM sodium phosphate buffer (pH 6.5). 19 μL of above reaction mixture is added to wells of 384 well reaction plate containing […] of various concentrations of test compound or DMSO vehicle and incubated for 20 minutes at room temperature. The TDO enzymatic reaction assay is performed using 1 nM TDO and 350 μM L-Trp in the presence of 10 mM ascorbic acid, 0.4 μM methylene blue, 100 nM catalase and 0.01% Tween 20 in 50 mM sodium phosphate buffer (pH 6.5). 19 μL of above reaction mixture is added to wells of 384 well reaction plate containing 1 μL of various concentrations of test compound or DMSO vehicle and incubated for 70 minutes at room temperature. 16 wells containing all the components of reaction mixture and 5% DMSO serve as high control. 16 well containing all the components except enzyme of reaction mixture and 5% DMSO serves as low control. Both IDO and TDO enzymatic reactions are stopped by addition of […] of 30% TCA and incubated 30 minutes at 50° C. to hydrolyze N-formylkynurenine produced by IDO or TDO to kynurenine. Upon measuring the kynurenine level, the percentage inhibition is calculated at individual concentrations relative to high and low controls. The data is analyzed by using nonlinear regression to generate IC50 values.

[2] = biological target: T2, Human Indoleamine 2,3-dioxygenase (IDO) (Homo sapiens, UniProt P14902); assay: Human IDO enzymatic assay (kynurenine level); type: biochemical; settings: 6 nM IDO, 10 μM L-Trp; geometric mean; read-out: IDO1 GMean: IC50 (μM) (Biochemical Assay)
T2 construct: His tag (N); made in house; host or cells: E. coli
Experimental: as §1, §2

T2 sequence (P14902 whole entry): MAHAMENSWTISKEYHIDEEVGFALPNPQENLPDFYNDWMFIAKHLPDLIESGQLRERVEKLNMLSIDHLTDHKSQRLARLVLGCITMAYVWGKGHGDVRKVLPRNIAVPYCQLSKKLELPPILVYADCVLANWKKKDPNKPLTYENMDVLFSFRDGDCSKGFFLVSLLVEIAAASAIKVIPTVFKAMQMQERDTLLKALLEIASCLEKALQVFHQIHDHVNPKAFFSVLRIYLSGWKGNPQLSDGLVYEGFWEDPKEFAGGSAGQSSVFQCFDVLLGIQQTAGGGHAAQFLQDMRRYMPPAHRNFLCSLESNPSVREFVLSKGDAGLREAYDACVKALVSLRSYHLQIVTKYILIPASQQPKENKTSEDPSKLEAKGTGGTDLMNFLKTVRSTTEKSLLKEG
T1 sequence (P48775 whole entry): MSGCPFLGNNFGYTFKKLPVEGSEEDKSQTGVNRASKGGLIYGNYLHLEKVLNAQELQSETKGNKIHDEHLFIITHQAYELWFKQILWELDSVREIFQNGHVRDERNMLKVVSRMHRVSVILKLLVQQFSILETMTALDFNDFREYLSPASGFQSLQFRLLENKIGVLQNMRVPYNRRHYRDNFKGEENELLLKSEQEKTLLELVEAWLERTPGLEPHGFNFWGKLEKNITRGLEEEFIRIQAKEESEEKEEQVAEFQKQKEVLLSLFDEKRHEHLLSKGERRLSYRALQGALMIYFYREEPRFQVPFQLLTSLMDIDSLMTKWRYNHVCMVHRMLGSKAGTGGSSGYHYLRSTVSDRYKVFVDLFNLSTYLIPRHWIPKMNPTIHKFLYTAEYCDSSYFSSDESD

Row | SMILES | IC50 [1] [µM] | IC50 [2] [µM]
1 | CC(C)(C1CCN(C(=O)C(F)(F)F)CC1)[C@H](O)c1cc(Cl)cc2cn[nH]c12 [Compound P-0663, (S)-1-(4-(1-(5-chloro-1H-indazol-7-yl)-1-hydroxy-2-methylpropan-2-yl)piperidin-1-yl)-2,2,2-trifluoroethan-1-one] | 0.0001 to 10 | 0.0001 to 10
2 | CC(C)(C1CCN(C(=O)NC2CCS(=O)(=O)CC2)CC1)[C@H](O)c1cc(Cl)cc2cn[nH]c12 [Compound P-0674, (S)-4-(1-(5-chloro-1H-indazol-7-yl)-1-hydroxy-2-methylpropan-2-yl)-N-(1,1-dioxidotetrahydro-2H-thiopyran-4-yl)piperidine-1-carboxamide] | 0.0001 to 10 | 0.0001 to 10
3 | C[C@@H](O)CNC(=O)N1CCC(C(C)(C)[C@H](O)c2cc(Cl)cc3cn[nH]c23)CC1 [Compound P-0670, 4-((S)-1-(5-chloro-1H-indazol-7-yl)-1-hydroxy-2-methylpropan-2-yl)-N-((R)-2-hydroxypropyl) piperidine-1-carboxamide] | 0.0001 to 10 | 0.0001 to 10
4 | OC(c1cccc(C(F)(F)F)c1)c1cccc2cncn12 (stereo not shown) [Compound P-0078, imidazo[1,5-a]pyridin-5-yl(3-(trifluoromethyl)phenyl)methanol] | 10 to 100 | 0.0001 to 10
5 | CC(C)(C1CCN(C(=O)N[C@H]2CCOC2)CC1)[C@H](O)c1cc(Cl)cc2cn[nH]c12 [Compound P-0589, 4-((S)-1-(5-chloro-1H-indazol-7-yl)-1-hydroxy-2-methylpropan-2-yl)-N-((S)-tetrahydrofuran-3-yl)piperidine-1-carboxamide] | 0.0001 to 10 | 0.0001 to 10
6 | O=C(NC1CC1)N1CCC(C(F)(F)[C@H](O)c2c3c(cc4cn[nH]c24)CC3)CC1 [Compound P-0628, (R)-N-cyclopropyl-4-(2-(5,6-dihydro-1H-cyclobuta[f]indazol-7-yl)-1,1-difluoro-2-hydroxyethyl) piperidine-1-carboxamide] | 0.0001 to 10 | 0.0001 to 10
7 | CC(C)(C1CCN(C(=O)NC2CCC(F)(F)CC2)CC1)[C@H](O)c1cc(Cl)cc2cn[nH]c12 [Compound P-0588, (S)-4-(1-(5-chloro-1H-indazol-7-yl)-1-hydroxy-2-methylpropan-2-yl)-N-(4,4-difluorocyclohexyl) piperidine-1-carboxamide] | 0.0001 to 10 | 0.0001 to 10
8 | CC(C)(C1CCN(C(=O)NCS(C)(=O)=O)CC1)[C@H](O)c1cc(Cl)cc2cn[nH]c12 [Compound P-0579, (S)-4-(1-(5-chloro-1H-indazol-7-yl)-1-hydroxy-2-methylpropan-2-yl)-N-((methylsulfony)methyl)piperidine-1-carboxamide] | 0.0001 to 10 | 0.0001 to 10
9 | CC(C)(C1CCN(C(=O)NCCF)CC1)[C@H](O)c1cc(Cl)cc2cn[nH]c12 [Compound P-0580, (S)-4-(1-(5-chloro-1H-indazol-7-yl)-1-hydroxy-2-methylpropan-2-yl)-N-(2-fluoroethyl) piperidine-1-carboxamide] | 0.0001 to 10 | 0.0001 to 10
10 | CC(C)(C1CCN(C(=O)NCC#N)CC1)[C@H](O)c1cc(Cl)cc2cn[nH]c12 [Compound P-0587, (S)-4-(1-(5-chloro-1H-indazol-7-yl)-1-hydroxy-2-methylpropan-2-yl)-N-(cyanomethyl) piperidine-1-carboxamide] | 0.0001 to 10 | 0.0001 to 10
11 | CC(C)(C1CCN(C(=O)NC2COC2)CC1)[C@H](O)c1cc(Cl)cc2cn[nH]c12 [Compound P-0595, (S)-4-(1-(5-chloro-1H-indazol-7-yl)-1-hydroxy-2-methylpropan-2-yl)-N-(oxetan-3-yl)piperidine-1-carboxamide] | 0.0001 to 10 | 0.0001 to 10
12 | COCCNC(=O)N1CCC(C(F)(F)[C@H](O)c2c3c(cc4cn[nH]c24)CC3)CC1 [Compound P-0630, (R)-4-(2-(5,6-dihydro-1H-cyclobuta[f]indazol-7-yl)-1,1-difluoro-2-hydroxyethyl)-N-(2-methoxyethyl) piperidine-1-carboxamide] | 0.0001 to 10 | 0.0001 to 10
13 | CCCOc1ccc(C(O)c2cccc3cncn23)cc1 (stereo not shown) [Compound P-0064, imidazo[1,5-a]pyridin-5-yl(4-propoxyphenyl)methanol] | 10 to 100 | 0.0001 to 10
14 | CC(C)(C1CCN(C(=O)Nc2ccccc2)CC1)C(O)c1cc(Cl)cc2[nH]ncc12 (stereo not shown) [Compound P-0603, 4-(1-(6-chloro-1H-indazol-4-yl)-1-hydroxy-2-methylpropan-2-yl)-N-phenylpiperidine-1-carboxamide] | 0.0001 to 10 | 0.0001 to 10

Now from value to molecule:

Row | IC50 [1] [µM] | IC50 [2] [µM] | SMILES
15 | 0.0001 to 10 | 0.0001 to 10 | C[C@H](CO)NC(=O)N1CCC(C(C)(C)[C@H](O)c2cc(Cl)cc3cn[nH]c23)CC1 [Compound P-0668, 4-((S)-1-(5-chloro-1H-indazol-7-yl)-1-hydroxy-2-methylpropan-2-yl)-N-((R)-1-hydroxypropan-2-yl)piperidine-1-carboxamide]
16 | 0.0001 to 10 | 0.0001 to 10 | CNC(=O)N1CCC(C(F)(F)[C@H](O)c2cc(Cl)cc3cn[nH]c23)CC1 [Compound P-0575, (R)-4-(2-(5-chloro-1H-indazol-7-yl)-1,1-difluoro-2-hydroxyethyl)-N-methylpiperidine-1-carboxamide]
17 | 0.0001 to 10 | 0.0001 to 10 | CC(C)(C1CCN(C(=O)NCc2ccc(C#N)cc2)CC1)[C@H](O)c1cc(Cl)cc2cn[nH]c12 [Compound P-0584, (S)-4-(1-(5-chloro-1H-indazol-7-yl)-1-hydroxy-2-methylpropan-2-yl)-N-(4-cyanobenzyl) piperidine-1-carboxamide]
18 | 0.0001 to 10 | 0.0001 to 10 | OC(c1cccc2cncn12)C1CCOCC1 (stereo not shown) [Compound P-0075, imidazo[1,5-a]pyridin-5-yl(tetrahydro-2H-pyran-4-yl)methanol]
19 | 0.0001 to 10 | 0.0001 to 10 | CCC(=O)N1CCC(C(F)(F)[C@H](O)c2c3c(cc4cn[nH]c24)CC3)CC1 [Compound P-0612, (R)-1-(4-(2-(5,6-dihydro-1H-cyclobuta[f]indazol-7-yl)-1,1-difluoro-2-hydroxyethyl)piperidin-1-yl) propan-1-one]
20 | 0.0001 to 10 | 0.0001 to 10 | CC(C)(C1CCN(C(=O)NCC(F)F)CC1)[C@H](O)c1cc(Cl)cc2cn[nH]c12 [Compound P-0581, (S)-4-(1-(5-chloro-1H-indazol-7-yl)-1-hydroxy-2-methylpropan-2-yl)-N-(2,2-difluoroethyl) piperidine-1-carboxamide]
21 | 0.0001 to 10 | 0.0001 to 10 | CN1CCN(Cc2ccc(NC(=O)N3CCC(C(C)(C)[C@H](O)c4cc(Cl)cc5cn[nH]c45)CC3)cc2)CC1 [Compound P-0676, (S)-4-(1-(5-chloro-1H-indazol-7-yl)-1-hydroxy-2-methylpropan-2-yl)-N-(4-((4-methylpiperazin-1-yl)methyl)phenyl) piperidine-1-carboxamide]
22 | 0.0001 to 10 | 0.0001 to 10 | CCNC(=O)N1CCC(C(F)(F)[C@H](O)c2c3c(cc4cn[nH]c24)CC3)CC1 [Compound P-0627, (R)-4-(2-(5,6-dihydro-1H-cyclobuta[f]indazol-7-yl)-1,1-difluoro-2-hydroxyethyl)-N-ethylpiperidine-1-carboxamide]
23 | 0.0001 to 10 | 0.0001 to 10 | CC(C)(C1CCN(C(=O)NC2(C#N)CC2)CC1)[C@H](O)c1cc(Cl)cc2cn[nH]c12 [Compound P-0672, (S)-4-(1-(5-chloro-1H-indazol-7-yl)-1-hydroxy-2-methylpropan-2-yl)-N-(1-cyanocyclopropyl) piperidine-l-carboxamide]
24 | 0.0001 to 10 | 0.0001 to 10 | O=C(Cc1ccc(F)c(Cl)c1)N1CCC(C(F)(F)[C@H](O)c2cc(Cl)cc3cn[nH]c23)CC1 [Compound P-0572, (R)-1-(4-(2-(5-chloro-1H-indazol-7-yl)-1,1-difluoro-2-hydroxyethyl)piperidin-1-yl)-2-(3-chloro-4-fluorophenyl)ethan-1-one]
25 | 0.0001 to 10 | 0.0001 to 10 | O=C(Nc1cccnc1)N1CCC(C(F)(F)[C@H](O)c2c3c(cc4cn[nH]c24)CC3)CC1 [Compound P-0636, (R)-4-(2-(5,6-dihydro-1H-cyclobuta[f]indazol-7-yl)-1,1-difluoro-2-hydroxyethyl)-N-(pyridin-3-yl)piperidine-1-carboxamide]
26 | 0.0001 to 10 | 0.0001 to 10 | CC(C)(C1CCN(C(=O)CC2CCS(=O)(=O)CC2)CC1)C(O)c1cc(Cl)cc2[nH]ncc12 (stereo not shown) [Compound P-0610, 1-(4-(1-(6-chloro-1H-indazol-4-yl)-1-hydroxy-2-methylpropan-2-yl)piperidin-1-yl)-2-(1,1-dioxidotetrahydro-2H-thiopyran-4-yl)ethan-1-one]
